Data: patent US8962687B2, “Method of treating liver disorders” (priority 2012, dated 2015)
Entries after “also recorded” stand apart in the source; their conditions may differ.

How the values were obtained:
Assay type in all cases: in vivo, C57BL/6 mice
[1] = tested on: STAM mice; experiment: Alpha-SMA immunostaining in STAM model; conditions: mean±SD
Procedure: (§1) For immunohistochemistry, sections were cut from frozen left lateral liver tissues embedded in Tissue-Tek O.C.T. compound and fixed in acetone. Endogenous peroxidase activity was blocked using 0.03% H2O2 for 5 minutes, followed by incubation with Block Ace (Dainippon Sumitomo Pharma, Japan) for 10 minutes. The sections were incubated with a 200-fold dilution of anti-α-SMA (Epitomics, USA) or anti-F4/80 antibody (BMA Biomedicals, Switzerland) 1 hour at room temperature. […] For quantitative analysis of fibrosis area, inflammation area, and semi-quantification of α-SMA, bright field images of Sirius red-stained, F4/80 and α-SMA-immunostained sections were captured around the central vein using a digital camera (DFC280; Leica, Germany) at 200-fold magnification, and the positive areas in 5 fields/section were measured using ImageJ software (National Institute of Health, USA).

[2] = tested on: STAM mice; experiment: Liver hydroxyproline content in STAM model; conditions: mean±SD
Procedure: To quantify liver hydroxyproline content, frozen liver samples (32-40 mg) were processed by an alkaline-acid hydrolysis method as follows. Liver samples were defatted with 100% acetone, dried in the air, dissolved in 2N NaOH at 65° C., and autoclaved at 121° C. for 20 minutes. The lysed samples (400 μL) were acid-hydrolyzed with 400 μL of 6N HCl at 121° C. for 20 minutes, and neutralized with 400 μL of 4N NaOH containing 10 mg/mL activated carbon. AC buffer (2.2M acetic acid/0.48M citric acid, 400 μL) was added to the samples, followed by centrifugation to collect the supernatant. A standard curve of hydroxyproline was constructed with serial dilutions of trans-4-hydroxy-L-proline (Sigma-Aldrich) starting at 16 μg/mL. The prepared samples and standards (each 400 μL) were mixed with 400 μL chloramine T solution (Wako Pure Chemical Industries) and incubated for 25 minutes at room temperature. […] After samples were cooled on ice and centrifuged to remove precipitates, the optical density of each supernatant was measured at 560 nm. The concentrations of hydroxyproline were calculated from the hydroxyproline standard curve. Protein concentrations of liver samples were determined using a BCA protein assay kit (Thermo Fisher Scientific, USA) and used to normalize the calculated hydroxyproline values. Liver hydroxyproline levels were expressed as μg per mg protein.

[3] = tested on: STAM mice; experiment: HE staining and NAFLD Activity Score (NAS) in STAM model of NASH; parameters: key to NAS (mean ± SD): NAFLD Activity Score per Kleiner et al. 2005 criteria; conditions: for Steatosis score 1, number of mice: score 1 = 5-33%; for Lobular inflammation score 1, number of mice: score 1 = <2 foci/200x; for Hepatocyte ballooning score 1, number of mice: score 1 = Few balloon cells; for Lobular inflammation score 2, number of mice: score 2 = 2-4 foci/200x; for Hepatocyte ballooning score 2, number of mice: score 2 = Many cells/prominent ballooning; for Hepatocyte ballooning score 0, number of mice: score 0 = None
Procedure: STAM™ is a model for non-alcoholic steatohepatitis (NASH), symtoms thereof, and related liver disorders, created by the combination of chemical and dietary interventions in C57BL/6 mice. […] For HE staining, sections were cut from paraffin blocks of left lateral liver tissue prefixed in Bouin's solution and stained with Lillie-Mayer's Hematoxylin (Muto Pure Chemicals, Japan) and eosin solution (Wako Pure Chemical Industries). NAS was calculated according to the criteria of Kleiner (Kleiner D E. et al., Hepatology, 2005; 41:1313). To visualize collagen deposition, Bouin's fixed left lateral liver sections were stained using picro-Sirius red solution (Waldeck, Germany).

[4] = tested on: STAM mice; experiment: F4/80 immunostaining, inflammation area in STAM model; conditions: mean±SD
Procedure: as §1

[5] = tested on: STAM mice; experiment: Sirius red staining, fibrosis area in STAM model; conditions: for fibrosis area (Sirius red-positive area): mean±SD
Procedure: For HE staining, sections were cut from paraffin blocks of left lateral liver tissue prefixed in Bouin's solution and stained with Lillie-Mayer's Hematoxylin (Muto Pure Chemicals, Japan) and eosin solution (Wako Pure Chemical Industries). NAS was calculated according to the criteria of Kleiner (Kleiner D E. et al., Hepatology, 2005; 41:1313). To visualize collagen deposition, Bouin's fixed left lateral liver sections were stained using picro-Sirius red solution (Waldeck, Germany). For quantitative analysis of fibrosis area, inflammation area, and semi-quantification of α-SMA, bright field images of Sirius red-stained, F4/80 and α-SMA-immunostained sections were captured around the central vein using a digital camera (DFC280; Leica, Germany) at 200-fold magnification, and the positive areas in 5 fields/section were measured using ImageJ software (National Institute of Health, USA).

[6] = tested on: STAM mice; experiment: Whole blood glucose and plasma ALT/AST in STAM model; conditions: mean±SD; for Whole blood glucose: non-fasting
Procedure: Non-fasting blood glucose was measured in whole blood using […], Japan). For plasma biochemistry, blood was collected in polypropylene tubes with anticoagulant (Novo-Heparin, Mochida Pharmaceutical, Japan) and centrifuged at 1,000×g for 15 minutes at 4° C. The supernatant was collected and stored at -80° until use. Plasma ALT and AST levels were measured by FUJI DRI-CHEM 7000 (Fujifilm, Japan).

[7] = tested on: MCP-1 mRNA; experiment: Quantitative RT-PCR of liver, MCP-1; conditions: relative, normalized to 36B4, 30 mg/kg oral once daily, 6-9 wks (MN-001-middle group), mean±SD
Procedure: (§2) Total RNA was extracted from liver samples using RNAiso (Takara Bio, Japan) according to the manufacturer's instructions. One μg of RNA was reverse-transcribed using a reaction mixture containing 4.4 mM MgCl2 (Roche, Switzerland), 40 U RNase inhibitor (Toyobo, Japan), 0.5 mM dNTP (Promega, USA), 6.28 μM random hexamer (Promega), 5× first strand buffer (Promega), 10 mM dithiothreitol (Invitrogen) and 200 U MMLV-RT (Invitrogen) in a final volume of 20 μL. The reaction was carried out for 1 hour at 37° C., followed by 5 minutes at 99° C. Real-time PCR was performed using real-time PCR DICE and SYBR premix Taq (Takara Bio). To calculate the relative mRNA expression level, the expression of each gene was normalized to that of reference gene 36B4 (gene symbol: Rp1p0). Information of PCR-primer sets and the plate layout was described in Table 1.

[8] = tested on: TNF-α mRNA; experiment: Quantitative RT-PCR of liver, TNF-α; conditions: relative, mean±SD
Procedure: as §2

[9] = tested on: CCR2 mRNA; experiment: Quantitative RT-PCR of liver, CCR2; conditions: relative, mean±SD
Procedure: as §2

[10] = tested on: Alpha-SMA mRNA; experiment: Quantitative RT-PCR of liver, Alpha-SMA; conditions: relative, mean±SD
Procedure: as §2

[11] = tested on: TIMP-1 mRNA; experiment: Quantitative RT-PCR of liver, TIMP-1; conditions: relative, mean±SD
Procedure: as §2

[12] = tested on: STAM mice; experiment: Liver weight and liver-to-body weight ratio in STAM model; conditions: mean±SD
Procedure: NASH was induced in 50 male mice by a single subcutaneous injection of 200 μg streptozotocin (STZ, Sigma-Aldrich, USA) solution 2 days after birth and feeding with high fat diet (HFD, 57 kcal % fat, cat#: HFD32, CLEA Japan, Japan) after 4 weeks of age. Ten male littermates, fed with normal diet and without STZ treatment, were used for the normal group. Vehicle, MN-001, and Telmisartan were administered by oral route in a volume of 10 mL/kg. MN-001 was administered at doses of 10, 30, and 100 mg/kg once daily. Telmisartan was administered at dose of 10 mg/kg once daily.

[13] = 30 mg/kg oral once daily, 6-9 wks of age (MN-001-middle group)
[14] = 10 mg/kg oral once daily, 6-9 wks of age (MN-001-low; Telmisartan groups)
[15] = 10 mg/kg oral once daily, 6-9 wks, n 10
[16] = 30 mg/kg oral once daily, 6-9 wks, n 10
[17] = 100 mg/kg oral once daily, 6-9 wks of age (MN-001-high group)
[18] = 100 mg/kg oral once daily, 6-9 wks, n 10
[19] = normalized to 36B4, 10 mg/kg oral once daily, 6-9 wks (MN-001-low; Telmisartan groups)
[20] = normalized to 36B4, 30 mg/kg oral once daily, 6-9 wks (MN-001-middle group)
[21] = normalized to 36B4, 100 mg/kg oral once daily, 6-9 wks (MN-001-high group)

In the case of `CCCc1c(SCCCOc2ccc(C(C)=O)c(OCCCC(=O)O)c2CCC)ccc(C(C)=O)c1O` [MN-001], the α-SMA-positive area [1, 13] was 0.11±0.04%, the Liver hydroxyproline content [2, 14] was 0.78±0.34 μg/mg protein and the Liver hydroxyproline content [2, 13] was 0.63±0.12 μg/mg protein. The “NAS (mean ± SD)” value [3, 14] was 4.7±0.5, the “hepatocellular ballooning, HE-stained liver sections, compared with Vehicle” value [3, 14] was “moderate decrease” and the “Steatosis score 1, number of mice” value [3, 15] was 10. The “Lobular inflammation score 1, number of mice” value [3, 15] was 1, the “Hepatocyte ballooning score 1, number of mice” value [3, 15] was 2 and the “Lobular inflammation score 2, number of mice” value [3, 15] was 9. The “Hepatocyte ballooning score 2, number of mice” value [3, 15] was 8, the “NAS (mean ± SD)” value [3, 13] was 4.7±0.5 and the “hepatocellular ballooning, HE-stained liver sections, compared with Vehicle” value [3, 13] was “moderate decrease”. The “Steatosis score 1, number of mice” value [3, 16] was 10, the “Hepatocyte ballooning score 1, number of mice” value [3, 16] was 3 and the “Lobular inflammation score 2, number of mice” value [3, 16] was 10. For the same compound, the “Hepatocyte ballooning score 2, number of mice” value [3, 16] was 7, the “hepatocellular ballooning, HE-stained liver sections / ballooning score, compared with Vehicle” value [3, 17] was “significantly reduced; also recorded: marked improvements” and the “inflammatory cell infiltration, HE-stained liver sections, compared with Vehicle” value [3, 17] was “moderate improvements”. For the same compound, the “Lobular inflammation score 0, number of mice” value ([3]; 100 mg/kg oral once daily, 6-9 wks, score 0 = No foci, n 10) was 1, the “Hepatocyte ballooning score 0, number of mice” value [3, 18] was 2 and the “Steatosis score 1, number of mice” value [3, 18] was 10. The “Lobular inflammation score 1, number of mice” value [3, 18] was 4, the “Hepatocyte ballooning score 1, number of mice” value [3, 18] was 7 and the “Lobular inflammation score 2, number of mice” value [3, 18] was 5. For the same compound, the “Hepatocyte ballooning score 2, number of mice” value [3, 18] was 1, the “inflammation area (F4/80-positive area)” value [4, 13] was 6.33±0.84% and the “inflammation area (F4/80-positive area)” value [4, 17] was 6.31±0.76%. For the same compound, the “fibrosis area (Sirius red-positive area)” value [5, 14] was 0.76±0.19%, the “fibrosis area (Sirius red-positive area)” value [5, 13] was 0.76±0.16% and the “fibrosis area (Sirius red-positive area)” value [5, 17] was 0.69±0.18%. The “fibrosis area compared with Vehicle” value ([5]; MN-001 treatment groups together (10, 30, 100 mg/kg oral once daily, 6-9 wks), dose dependent manner) was “significantly reduced; also recorded: significantly decreased”, the “Plasma ALT” value [6, 14] was 71±60 U/L and the “Plasma ALT” value [6, 13] was 48±23 U/L. For the same compound, the “Plasma ALT” value [6, 17] was 54±11 U/L, the Whole blood glucose [6, 14] was 614 ± 98 mg/dL and the Whole blood glucose [6, 13] was 609 ± 78 mg/dL. For the same compound, the Whole blood glucose [6, 17] was 671 ± 124 mg/dL, the “MCP-1 mRNA expression levels” value [7] was 4.00±7.78 and the “TNF-α mRNA expression levels” value [8, 19] was 3.42±2.53. For the same compound, the “TNF-α mRNA expression levels” value [8, 20] was 7.97±9.30, the “TNF-α mRNA expression levels” value [8, 21] was 9.74±3.34 and the “CCR2 mRNA expression levels” value [9, 21] was 3.86±1.43. For the same compound, the “Alpha-SMA mRNA expression levels” value [10, 19] was 36.8±111, the “Alpha-SMA mRNA expression levels” value [10, 20] was 3.13±2.52 and the “Alpha-SMA mRNA expression levels” value [10, 21] was 5.78±3.45. For the same compound, the “TIMP-1 mRNA expression levels” value [11, 21] was 10.6±5.83, the Mean liver weight [12, 14] was 1567 ± 165 mg and the Mean liver weight [12, 17] was 1480 ± 145 mg.

For `CCCc1nc2c(C)cc(-c3nc4ccccc4n3C)cc2n1Cc1ccc(-c2ccccc2C(=O)O)cc1` [Telmisartan, reference compound], the α-SMA-positive area [1, 14] was 0.12±0.05%, the “hepatocellular ballooning, HE-stained liver sections, compared with Vehicle” value [3, 14] was “marked improvements” and the “inflammatory cell infiltration, HE-stained liver sections, compared with Vehicle” value ([3]; 10 mg/kg oral once daily, 6-9 wks of age (Telmisartan group)) was “marked improvements”. For the same compound, the “Steatosis score 0, number of mice” value ([3]; 10 mg/kg oral once daily, 6-9 wks, score 0 = <5%, n 10) was 1, the “Hepatocyte ballooning score 0, number of mice” value [3, 15] was 4 and the “Steatosis score 1, number of mice” value [3, 15] was 9. The “Lobular inflammation score 1, number of mice” value [3, 15] was 10, the “Hepatocyte ballooning score 1, number of mice” value [3, 15] was 6 and the “Plasma AST” value [6, 14] was 190±28 U/L. For the same compound, the “TNF-α mRNA expression levels” value [8, 19] was 8.35±2.84, the “CCR2 mRNA expression levels” value [9, 19] was 3.21±0.85 and the “TIMP-1 mRNA expression levels” value [11, 19] was 7.82±2.62.
